A short description of series [1]: Aqueous solubilities of N-alkylalkano and N-H hydroxamic acids (Table 1). The class given is physicochemical. An excerpt:
It is desirable that the N-organo hydroxamic acid have low solubility in water in order to effect ready separation of the chelated gallium from the aqueous oxidizing medium.
For the extraction to occur, it is necessary that the extractant have some slight solubility in the aqueous Ga-containing medium.

Series [2] is described as follows: Example 2: complexing agents with hydrogen peroxide to oxidize and dissolve gallium arsenide (Table 3).
The nature of series [3]: Example 1: gallium recovery from Lap Sludge by simultaneous dissolution and separation.
A short description of series [4]: Solubility in a typical phosphate rock treater dust leachate. The settings on record: leachate with high concentrations of Al, Zn, Fe, phosphate and other ions. Format: physicochemical. An excerpt: It wlll be noted that most of the N-alkyl hydroxamic acids have very low solubilities in aqueous media, with the solubility tending to increase with decreasing number of carbon atoms in the hydroxamic acids. […] This appreciable but limited solubility appears responsible for the effectiveness of N-methylnonanohydroxamic acid in extracting Ga from such leachates, with regard to both rate and extent of the extraction compared to higher carbon number N-alkyl hydroxamic acids. For the extraction to occur, it is necessary that the extractant have some slight solubility in the aqueous Ga-containing medium.

A short description of series [5]: Viscosity of hydroxamic acids. The class given is physicochemical. The settings on record: neat, without a solvent. An excerpt:
When a liquid hydroxamic acid compound is used, it can be used neat as the organic phase in the oxidation-dissolution reaction and the subsequent extraction-separation. However it will often be preferable to use an organic solvent as an extender, or to lower viscosity or lessen absorption or resulting losses of the hydroxamic acid, or to promote phase separation, and the organic phase often includes a liquid hydrocarbon solvent. Such solvent must be substantially water immiscible so as to be separable from the aqueous solutions containing the arsenic values. Suitable solvents include aliphatic and aromatic hydrocarbons such as kerosene, hexane, toluene, methylene chloride, chloroform, carbon tetrachloride, xylene, naphtha, cyclohexane, Chevron Ion Exchange solvent, Kermac 470-B. Solvesso 100 and the like. Kerosene and other low viscosity, high flash point petrolleum distillates are preferred. Generally, the hydroxamic compounds will be present in the organic phase in an amount of at least about 2% by weight. Preferably, the N-alkyl alkanohydroxamic compound will be present in the amount of 2 to 40%, more preferably about 10 to 35%, by weight based on the total organic phase. Viscosity and/or solubility serves to fix the upper limit of the content of said hydroxamic compound which will depend upon the structure of the compound employed. […]

The mark [6] stands for this setting: 30% H2SO4 strip of organic phase.
Setting [7] is: aqueous phase plus dilute nitric acid and other washes.

On to `CCCCCCCCC(=O)N(C)O` [N-methylnonanohydroxamic acid], for which, in series [1], the “Solubility (25° C.)” value is 409. ppm and the “Solubility (25° C.), molarity” value is reported as 2.18 × 10^-3 molarity. The “% Ga in Solution After 4 Days” value in series [2] was 100%. The “effectiveness in reaction and dissolution of gallium arsenide” value in series [2] (H2O2 as oxidizing agent) was “effective complexing agent”. For the same compound, in series [3] (setting [6]), the “As in combined aqueous acid stripping solutions” value is given as 15 ppm and the “Ga in combined aqueous acid stripping solutions” value was determined as 1100 ppm. Further, in series [3] (setting [7]), the “As in combined aqueous phase and wash solutions” value worked out at 2510 ppm; the “Ga in combined aqueous phase and wash solutions” value worked out at 114 ppm. Besides, in series [3] (detection limit less than 1 ppm for each element), the “arsenic and gallium in water washings of organic phase” value is given as “Neither arsenic nor gallium was detectable”. The “Ga recovered per gram of starting sludge” value in series [3] (starting sludge 17.7 mg Ga/gram) came out at 17.8 mg Ga per gram. Further, the “As recovered per gram of starting sludge” value in series [3] (starting sludge analyzed 13.4 mg As/gram) was found to be 17.3 mg As/gram. In series [4], the “solubility in a typical phosphate rock treater dust leachate” value stood at 20 ppm and the “solubility in a typical phosphate rock treater dust leachate, molarity” value is 1.07×10^-4 molarity.
Take N-methyl isostearohydroxamic acid: the viscosity result in series [5] was “sufficiently low viscosity that they can be used neat”.

The values above are taken from patent US4759917A, “Oxidative dissolution of gallium arsenide and separation of gallium from arsenic” (priority 1987, dated 1988).
